Biological target: Adenosine receptor A2a (Homo sapiens, UniProt P29274)
Assay: A2a binding affinity assay C
Procedure: Method (C): Measurement of A2a Binding Affinity Using an Alternative Radioligand Binding AssayMembranes used in this procedure were made by washing cell cultures twice with DPBS buffer (Dulbecco's phosphate buffered saline without calcium and magnesium, ThermoFisher Scientific, Cat. No. A1285601), and harvesting the cell cultures by mechanical scraping. The cells were collected by centrifugation and re-suspended in 10 mM HEPES, pH 7.4 containing 0.1 mM benzamidine (Sigma, Cat. No. B6506) and 0.1 mM PMSF (phenylmethylsulfonyl fluoride, Sigma, Cat. No. 10837091001). Cells were freeze-thawed twice in a dry ice/ethanol bath and homogenized with 25 to 30 strokes in a glass dounce homogenizer (Wheaton, Cat. No. 357546). Membranes were pelleted at 40,000×g for 20 min at 4° C. and re-suspended in assay buffer (5 mM HEPES, pH 7.4, 5 mM MgCl2; supplemented with 0.1 mM benzamidine) at a protein concentration of 2.6 mg/mL. Protein concentration was determined by the Bio-Rad method (Bio-Rad, Cat. No. 5000002). […] After normalization to total and non-specific binding, the percent effect at each compound concentration was calculated. The plot of percent effect versus the log of compound concentration was analyzed electronically using a 4-parameter logistic fit based on the Levenberg-Marquardt algorithm to generate IC50 values.

Sequence of Adenosine receptor A2a (P29274 whole entry): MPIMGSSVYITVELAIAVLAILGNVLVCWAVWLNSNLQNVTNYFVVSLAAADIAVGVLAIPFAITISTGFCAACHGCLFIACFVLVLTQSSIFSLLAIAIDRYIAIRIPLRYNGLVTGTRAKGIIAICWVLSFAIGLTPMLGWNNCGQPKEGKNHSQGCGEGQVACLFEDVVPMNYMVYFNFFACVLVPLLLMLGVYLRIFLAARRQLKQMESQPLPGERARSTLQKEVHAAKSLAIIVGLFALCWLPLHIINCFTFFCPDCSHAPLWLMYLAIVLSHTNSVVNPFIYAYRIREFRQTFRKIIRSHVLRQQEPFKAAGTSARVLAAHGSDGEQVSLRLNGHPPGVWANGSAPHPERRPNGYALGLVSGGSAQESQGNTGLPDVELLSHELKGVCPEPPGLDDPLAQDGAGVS

IC50: 122 nM
Structure (SMILES): Nc1nc(-c2ccccc2)c(C2CC2)c2nc(CCN3CC(F)(F)C3)nn12 [US12414952, Example 20.6]

Source: BindingDB's records for patent US12414952 (Merck Sharp & Dohme, 2025)
